Target: human TYK2 (JH2domain-pseudokinase) (Homo sapiens (Human), UniProt P29597)
Test: TYK2 JH2 Domain Binding Assay (KINOMEscan)
Protocol: Binding constants for compounds of the present invention against the JH2 domain were determined by the following protocol for a KINOMEscan® assay (DiscoveRx). A fusion protein of a partial length construct of human TYK2 (JH2domain-pseudokinase) (amino acids G556 to D888 based on reference sequence NP_003322.3) and the DNA binding domain of NFkB was expressed in transiently transfected HEK293 cells. From these HEK 293 cells, extracts were prepared in M-PER extraction buffer (Pierce) in the presence of Protease Inhibitor Cocktail Complete (Roche) and Phosphatase Inhibitor Cocktail Set II (Merck) per manufacturers' instructions. The TYK2 (JH2domain-pseudokinase) fusion protein was labeled with a chimeric double-stranded DNA tag containing the NFkB binding site (5′-[…]-3′) fused to an amplicon for qPCR readout, which was added directly to the expression extract (the final concentration of DNA-tag in the binding reaction is 0.1 nM).
The liganded beads were blocked with excess biotin and washed with blocking buffer (SeaBlock (Pierce), 1% BSA, 0.05% Tween 20, 1 mM DTT) to remove unbound ligand and to reduce nonspecific binding.
Extracts were used directly in binding assays without any enzyme purification steps at a ≥10,000-fold overall stock dilution (final DNA-tagged enzyme concentration <0.1 nM). Extracts were loaded with DNA-tag and diluted into the binding reaction in a two step process. First extracts were diluted 1:100 in 1× binding buffer (PBS/0.05% Tween 20/10 mM DTT/0.1% BSA/2 μg/ml sonicated salmon sperm DNA) containing 10 nM DNA-tag. This dilution was allowed to equilibrate at room temperature for 15 minutes and then subsequently diluted 1:100 in 1× binding buffer. […] Kds were determined using an 11-point 3-fold compound dilution series with three DMSO control points. […] The compounds were then diluted directly into the assays such that the final concentration of DMSO was 0.9%. All reactions performed in polypropylene 384-well plates. Each was a final volume of 0.02 mL. Assays were incubated with shaking for 1 hour at room temperature. Then the beads were pelleted and washed with wash buffer (1×PBS, 0.05% Tween 20) to remove displaced kinase and test compound. […] The qPCR protocol consisted of a 10 minute hot start at 95° C., followed by 35 cycles of 95° C. for 15 seconds, 60° C. for 1 minute.
Kds were determined using an 11-point 3-fold compound dilution series with three DMSO control points. […] The compounds were then diluted directly into the assays such that the final concentration of DMSO was 0.9%. The Kds were determined using a compound top concentration of 30,000 nM. Kd measurements were performed in duplicate.
Binding constants (Kds) were calculated with a standard dose-response curve using the Hill equation: […]
The Hill Slope was set to −1.

human TYK2 (JH2domain-pseudokinase), sequence (P29597 556-888): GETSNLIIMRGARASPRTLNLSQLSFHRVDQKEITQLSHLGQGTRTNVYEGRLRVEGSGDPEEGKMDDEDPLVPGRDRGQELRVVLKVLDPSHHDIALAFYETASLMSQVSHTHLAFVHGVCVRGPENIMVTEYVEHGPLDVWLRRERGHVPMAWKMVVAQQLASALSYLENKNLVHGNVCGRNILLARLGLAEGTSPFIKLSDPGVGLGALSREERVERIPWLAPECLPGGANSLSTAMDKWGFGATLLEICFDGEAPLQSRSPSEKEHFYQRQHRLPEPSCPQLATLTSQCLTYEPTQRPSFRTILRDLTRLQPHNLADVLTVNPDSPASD

| Kd [nM] | SMILES |
| --- | --- |
| 0.2 to 1 | CNc1cc(Nc2cccn([C@H]3CCCOC3)c2=O)nc2c(C(=O)NC3CC3OC)cnn12 (mixture of isomers) [I-1415, N-(2-methoxycyclopropyl)-7-(methylamino)-5-((2-oxo-1-((S)-tetrahydro-2H-pyran-3-yl)-1,2-dihydropyridin-3-yl)amino)pyrazolo[1,5-a]pyrimidine-3-carboxamide] |
| 0.2 to 1 | CNc1cc(Nc2cccn(C3CCOCC3)c2=O)nc2c(C(=O)N[C@H]3CCC[C@]3(C)O)cnn12 (stereo in doubt) [I-1254, N-(2-hydroxy-2-methylcyclopentyl)-7-(methylamino)-5-((2-oxo-1-(tetrahydro-2H-pyran-4-yl)-1,2-dihydropyridin-3-yl)amino)pyrazolo[1,5-a]pyrimidine-3-carboxamide] |
| < 0.2 | CNc1cc(Nc2cccn(C3CCOCC3)c2=O)nc2c(C(=O)N[C@@H]3CCC[C@@](C)(OC)C3)cnn12 (stereo in doubt) [I-1274, N-(3-methoxy-3-methylcyclohexyl)-7-(methylamino)-5-((2-oxo-1-(tetrahydro-2H-pyran-4-yl)-1,2-dihydropyridin-3-yl)amino)pyrazolo[1,5-a]pyrimidine-3-carboxamide] |
| < 0.2 | CNc1cc(Nc2cccn(C3CCOCC3)c2=O)nc2c(C(=O)N[C@@H]3CC[C@@H](OC)C3)cnn12 (stereo in doubt) [I-1334, N-(3-methoxycyclopentyl)-7-(methylamino)-5-((2-oxo-1-(tetrahydro-2H-pyran-4-yl)-1,2-dihydropyridin-3-yl)amino)pyrazolo[1,5-a]pyrimidine-3-carboxamide] |
| 1 to 10 | CNc1cc(Nc2cccn([C@@H]3CCC[C@@H]3OC)c2=O)nc2c(C(=O)NC3CC3)cnn12 [I-524] |
| > 10 | CNc1cc(Nc2cccn([C@H]3CCC[C@H]3OC)c2=O)nc2c(C(=O)NC3CC3)cnn12 [I-525] |
| < 0.2 | CNc1cc(Nc2cccn([C@H]3C[C@@H]3OC)c2=O)nc2c(C(=O)N[C@@H]3CC[C@H]3OC)cnn12 [I-1186] |
| < 0.2 | CNc1cc(Nc2cccn([C@H]3C[C@@H]3OC)c2=O)nc2c(C(=O)N[C@H]3CC[C@@H]3OC)cnn12 [I-1187] |
| < 0.2 | CNc1cc(Nc2cccn(-c3ccc(C)nc3)c2=O)nc2c(C(=O)N[C@@H]3CCC[C@@H](OC)C3)cnn12 [I-1189] |
| < 0.2 | CNc1cc(Nc2cccn([C@@H]3CCC[C@H](O)C3)c2=O)nc2c(C(=O)N[C@@H]3CC[C@H]3OC)cnn12 [I-1190] |
| < 0.2 | CNc1cc(Nc2cccn([C@@H]3CCC[C@H](O)C3)c2=O)nc2c(C(=O)N[C@H]3CC[C@@H]3OC)cnn12 [I-1191] |
| < 0.2 | CNc1cc(Nc2cccn([C@H]3CCC[C@@H](O)C3)c2=O)nc2c(C(=O)N[C@@H]3CC[C@H]3OC)cnn12 [I-1192] |
| < 0.2 | CNc1cc(Nc2cccn([C@H]3CCC[C@@H](O)C3)c2=O)nc2c(C(=O)N[C@H]3CC[C@@H]3OC)cnn12 [I-1193] |
| < 0.2 | CNc1cc(Nc2cccn(C3CCOCC3)c2=O)nc2c(C(=O)N[C@H]3CC[C@H](OC)C3)cnn12 [I-1194] |
| 1 to 10 | CNc1cc(Nc2cccn(C3CCOCC3)c2=O)nc2c(C(=O)N[C@@H]3CC[C@@H](OC)C3)cnn12 [I-1195] |
| 0.2 to 1 | CNc1cc(Nc2cccn(C3CCOCC3)c2=O)nc2c(C(=O)N[C@@H]3CCCC[C@@]3(C)O)cnn12 [I-1196] |
| < 0.2 | CNc1cc(Nc2cccn(C3CCOCC3)c2=O)nc2c(C(=O)N[C@H]3CCCC[C@]3(C)O)cnn12 [I-1197] |
| < 0.2 | CNc1cc(Nc2cccn(C3CC(F)(F)C3)c2=O)nc2c(C(=O)N[C@@H]3CC[C@H]3O)cnn12 [I-1198] |
| 0.2 to 1 | CNc1cc(Nc2cccn(C3CC(F)(F)C3)c2=O)nc2c(C(=O)N[C@H]3CC[C@@H]3O)cnn12 [I-1199] |
| 0.2 to 1 | CNc1cc(Nc2cccn(C3CCOCC3)c2=O)nc2c(C(=O)N[C@H]3CCC[C@](C)(OC)C3)cnn12 [I-1200] |

Second part, the compound before the results:

| SMILES | Kd [nM] |
| --- | --- |
| CNc1cc(-c2cn([C@H]3CCCOC3)c3ncccc23)nc2c(C(=O)N[C@H]3COC[C@H]3O)cnn12 (mixture of isomers) [I-1251, N-(4-hydroxytetrahydrofuran-3-yl)-7-(methylamino)-5-(1-((S)-tetrahydro-2H-pyran-3-yl)-1H-pyrrolo[2,3-b]pyridin-3-yl)pyrazolo[1,5-a]pyrimidine-3-carboxamide] | 1 to 10 |
| CNc1cc(-c2cn([C@@H]3CCCOC3)c3ncccc23)nc2c(C(=O)NC3CCC3O)cnn12 (mixture of isomers) [I-1257, N-(2-hydroxycyclobutyl)-7-(methylamino)-5-(1-((R)-tetrahydro-2H-pyran-3-yl)-1H-pyrrolo[2,3-b]pyridin-3-yl)pyrazolo[1,5-a]pyrimidine-3-carboxamide] | < 0.2 |
| CNc1cc(-c2cn([C@H]3CCC[C@@H]3OC)c3ncccc23)nc2c(C(=O)NC3CCC3O)cnn12 (mixture of isomers) [I-1340, N-(2-hydroxycyclobutyl)-5-(1-((1S,2S)-2-methoxycyclopentyl)-1H-pyrrolo[2,3-b]pyridin-3-yl)-7-(methylamino)pyrazolo[1,5-a]pyrimidine-3-carboxamide] | 1 to 10 |
| CNc1cc(-c2cn([C@@H]3CCC[C@H]3OC)c3ncccc23)nc2c(C(=O)NC3CCC3O)cnn12 (mixture of isomers) [I-1341, N-(2-hydroxycyclobutyl)-5-(1-((1R,2R)-2-methoxycyclopentyl)-1H-pyrrolo[2,3-b]pyridin-3-yl)-7-(methylamino)pyrazolo[1,5-a]pyrimidine-3-carboxamide] | > 10 |
| CNc1cc(-c2cn(C3CCOCC3)c3ncccc23)nc2c(C(=O)N[C@@H]3CCC[C@@H](O)C3)cnn12 (stereo in doubt) [I-1359, N-(3-hydroxycyclohexyl)-7-(methylamino)-5-(1-(tetrahydro-2H-pyran-4-yl)-1H-pyrrolo[2,3-b]pyridin-3-yl)pyrazolo[1,5-a]pyrimidine-3-carboxamide] | < 0.2 |
| CNc1cc(Nc2cc(C)nc(C)c2)nc2c(C(N)=O)cnn12 [I-13] | 1 to 10 |
| CNc1cc(Nc2cc(Cl)cnc2O[C@@H]2CCOC2)nc2c(C(N)=O)cnn12 [I-84] | 0.2 to 1 |
| NC(=O)c1cnn2c(N)cc(Nc3cc(Cl)cnc3O[C@@H]3CCOC3)nc12 [I-85] | 1 to 10 |
| CNc1cc(Nc2cccnc2OC(C)C)nc2c(C(=O)NC3COC3)cnn12 [I-86] | > 10 |
| CNc1cc(Nc2cc(Cl)cnc2OC(C)C)nc2c(C(=O)NC3COC3)cnn12 [I-87] | > 10 |
| CNc1cc(Nc2cccc(N3CCCC3=O)n2)nc2c(C(=O)NC3COC3)cnn12 [I-88] | > 10 |
| CNc1cc(Nc2cccnc2OC)nc2c(C(=O)N[C@@H]3COC[C@@H]3O)cnn12 [I-519] | < 0.2 |
| CNc1cc(Nc2cccnc2OC2CC2)nc2c(C(=O)N[C@H]3COC[C@H]3O)cnn12 [I-520] | 0.2 to 1 |
| CNc1cc(Nc2cc(F)cn(C3CCCOC3)c2=O)nc2c(C(=O)N[C@@H]3C[C@@H]3F)cnn12 (some centres unmarked) [I-521] | < 0.2 |
| CNc1cc(Nc2cc(C(F)(F)F)cn(-c3cnn(C)c3)c2=O)nc2c(C(=O)NC3CC3)cnn12 [I-523] | 0.2 to 1 |
| CNc1cc(-c2cn([C@@H]3CCCOC3)c3ncccc23)nc2c(C(=O)N[C@@H]3COC[C@@H]3O)cnn12 [I-1184] | < 0.2 |
| CNc1cc(-c2cn([C@@H]3CCCOC3)c3ncccc23)nc2c(C(=O)N[C@H]3COC[C@H]3O)cnn12 [I-1185] | 1 to 10 |
| CNc1cc(Nc2cccn(-c3ccc(C)nc3)c2=O)nc2c(C(=O)N[C@H]3CCC[C@H](OC)C3)cnn12 [I-1188] | 1 to 10 |
